# Measurements from article PMC6627609, “Targeting Quorum Sensing: High-Throughput Screening to Identify Novel LsrK Inhibitors” (International Journal of Molecular Sciences, 2019).
# “And” between values parts separate entries of the source, which are not always exact repeats. Equal values may be shown once.
# Key:
# E. coli LW7 pLW11 = assay: AI-2 QS interference assay; type: cell-based; conditions: for IC50: dose-response in the presence of PAβN, read-out: IC50 AI-2 QS inhibition
# LsrK = LsrK (Salmonella typhimurium, UniProt Q8ZKQ6); assay: biochemical; type: biochemical, S. typhimurium
# His-LsrK [1] = molecular target: T1, His-LsrK (Salmonella typhimurium, UniProt Q8ZKQ6); assay: MST assay; type: binding, S. typhimurium; conditions: 95% CI
# His-LsrK [2] = molecular target: T1, His-LsrK; assay: Thermal shift assay; type: binding, S. typhimurium; conditions: for shift in the Tm of His-LsrK (in words): dose range of test compound
# Description: Compounds were added to qPCR plates by Echo acoustic dispenser with a DMSO backfill to maintain a constant final concentration of DMSO in each well (the assay is tolerant up to 8% DMSO with no effect on Tm of LsrK). LsrK protein was added at a concentration of 1 µg per well in a volume of 10 µL with 1× Thermo thermal shift dye or 5× Sypro Orange dye (used for aurin tricarboxylic acid as this compound fluoresces with Thermo dye in 25 mM TEA, 200 µM MgCl2, pH 7.1). Appropriate DMSO-only negative controls and 1 mM ATP/DMSO positive controls were included in each test occasion. Using an Applied Biosystems Quant Studio 5 qPCR machine (Thermo Fisher Scientific, Waltham, MA, USA) the following thermal shift protocol was used: step 1—hold at 25 °C for 1 min; step 2—heat at 0.05 °C/s dissociation then hold at 99 °C for 1 min. Filter setting for Thermo dye: Ex/Em 580/623 nm and for Sypro Orange dye: Ex/Em 470/520 nm.
# [3] = test system: His-tagged control peptide or SDS denatured His-LsrK; assay: MST assay, specificity controls; type: binding
# [4] = cited from earlier work
# E. coli pBAC-lacZ = assay: Control strain β-gal assay (QS-independent lac promoter); type: cell-based
# rat = conditions: ip, ref MicroSource annotations; cited from earlier work
# mouse = conditions: po, ref MicroSource annotations; cited from earlier work
# T1 sequence (Q8ZKQ6 whole entry): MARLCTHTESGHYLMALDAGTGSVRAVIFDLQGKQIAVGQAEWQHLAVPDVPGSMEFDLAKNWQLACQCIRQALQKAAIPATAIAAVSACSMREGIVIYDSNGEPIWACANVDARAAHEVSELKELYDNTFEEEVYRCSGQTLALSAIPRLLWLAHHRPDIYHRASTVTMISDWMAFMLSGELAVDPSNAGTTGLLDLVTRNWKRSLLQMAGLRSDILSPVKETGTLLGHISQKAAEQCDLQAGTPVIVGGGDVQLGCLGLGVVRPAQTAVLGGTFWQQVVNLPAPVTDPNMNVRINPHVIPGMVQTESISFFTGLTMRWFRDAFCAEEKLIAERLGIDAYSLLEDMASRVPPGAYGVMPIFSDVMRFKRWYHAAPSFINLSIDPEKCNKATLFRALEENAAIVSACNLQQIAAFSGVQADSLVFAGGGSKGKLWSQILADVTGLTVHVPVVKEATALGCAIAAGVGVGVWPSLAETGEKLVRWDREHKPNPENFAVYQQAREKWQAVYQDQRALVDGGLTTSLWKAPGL
# LsrK, sequence (Q8ZKQ6 whole entry): as above
SMILES,"inhibition of AI-2 mediated QS (E. coli LW7 pLW11; 10 µM, in the presence of PAβN)","inhibition at 50 µM (E. coli LW7 pLW11; Escherichia coli, 50 µM, in the presence of PAβN, read-out: inhibition of AI-2 mediated QS) [%]",IC50 (E. coli LW7 pLW11; Escherichia coli) [µM],IC50 (LsrK) [µM],inhibition at 50 µM (LsrK) [%],Kd (His-LsrK [1]),shift in the Tm of His-LsrK (in words) (His-LsrK [2]),binding in MST to control peptide or SDS denatured His-LsrK [3],"inhibition of AI-2 mediated QS (E. coli LW7 pLW11; 50 µM, in the presence of PAβN)","shift in the Tm of His-LsrK (His-LsrK [2]; 20 µM, mean ± 95% CI) [°C]",solubility [4],"inhibition at 10 µM (E. coli LW7 pLW11; Escherichia coli, 10 µM, in the presence of PAβN, read-out: inhibition of AI-2 mediated QS) [%]",effect on β-gal expression or activity in the control strain (E. coli pBAC-lacZ),LD50 (rat) [mg/kg],LD50 (mouse) [mg/kg]
C[C@]1(OC(=O)/C=C/c2ccccc2)C[C@@H](O)[C@]2(O)C=CO[C@@H](O[C@@H]3O[C@H](CO)[C@@H](O)[C@H](O)[C@H]3O)[C@@H]21 [HARPAGOSIDE],only minor,~50,14,10,108,18.4 ± 0.9 µM,"significant, dose-dependent, positive shift in the Tm",No binding,–,–,–,–,–,–,–
O=C(O)C1=CC(=C(c2ccc(O)c(C(=O)O)c2)c2ccc(O)c(C(=O)O)c2)C=CC1=O [AURIN TRICARBOXYLIC ACID],No significant activity,–,–,1,96,0.408 ± 0.0699 µM,–,no binding,No significant activity,−0.85 ± 0.38,–,–,–,–,–
CC1=C(O)C(=O)C=C2C1=CC=C1[C@@]2(C)CC[C@@]2(C)[C@@H]3C[C@](C)(C(=O)O)CC[C@]3(C)CC[C@]12C [CELASTROL],–,–,–,4,109,–,–,–,–,–,poor solubility,–,–,–,–
O=C1C=CC(=C(c2ccc(O)cc2)c2ccc(O)cc2)C=C1 [ROSOLIC ACID],–,–,11,1,119,100 µM and ~100 µM,positively stabilizes His-LsrK in thermal shift at high concentrations,No binding,nearly complete inhibition,–,–,68,marginally affected,–,–
C[C@@H]1CC[C@@]2(OC1)O[C@H]1C[C@H]3[C@@H]4CC=C5C[C@@H](O)CC[C@]5(C)[C@H]4CC[C@]3(C)[C@H]1[C@@H]2C [DIOSGENIN],–,–,–,–,0,–,–,–,–,–,–,–,–,4872,> 8000
